# Laboratory results as given in patent publication EP0010119A1, “Isoquinoline derivatives, their preparation and pharmaceutical compositions containing these compounds” (THE MASSACHUSETTS GENERAL HOSPITAL, priority 1978, dated 1980).
# How the values were obtained:
# [1] = test system: twitch response of the tibialis anterior muscle; test: Neuromuscular block of the twitch response of the tibialis anterior muscle in anesthetized monkeys; format: in vivo, RHESUS MONKEY
# [2] = test system: skeletal muscle relaxation; conditions: in vivo; cited from earlier work
# [3] = time span from drug injection to full recovery of the twitch response, halothane, nitrous oxide and oxygen anesthesia, 4 animals per compound
SMILES,"Range of dupation of action (minutes from injection to full recovery) [1, 3] [min]",further results
"COc1ccc(CC2c3cc(OC)c(OC)cc3CC[N+]2(C)CCCOC(=O)C=Cc2ccc(C=CC(=O)OCCC[N+]3(C)CCc4cc(OC)c(OC)cc4C3Cc3ccc(OC)c(OC)c3)cc2)cc1OC (stereo not shown) [GG195, Bis-3-[N-methyl-1-(3,4-dimethoxybenzyl) 6,7-dimethoxy-1,2,3,4-tetrahydroisoquinolinium] propyl p-phenylene-3,3'-diacrylate dichlorid]",15 to 30,–
"COc1cc2c(cc1OC)C(Cc1cc(OC)c(OC)c(OC)c1)[N+](C)(CCCOC(=O)C=Cc1ccc(C=CC(=O)OCCC[N+]3(C)CCc4cc(OC)c(OC)cc4C3Cc3cc(OC)c(OC)c(OC)c3)cc1)CC2 (stereo not drawn) [HH109, Bis-3-[N-methyl-l-(3,4,5-trimethoxybenzyl)] 6,7-dimethoxy-1,2,3,4-tetrahydroisoquinolinium propyl p-phenylene-3,3'-diacrylate dichloride]",20 to 30,–
COc1ccc(CC2c3cc(OC)c(OC)cc3CC[N+]2(C)CCCOC(=O)Cc2ccc(CC(=O)OCCC[N+]3(C)CCc4cc(OC)c(OC)cc4C3Cc3ccc(OC)c(OC)c3)cc2)cc1OC (stereo not shown) [KK100],10 to 20,–
"COc1cc2c(cc1OC)C(Cc1cc(OC)c(OC)c(OC)c1)[N+](C)(CCCOC(=O)Cc1ccc(CC(=O)OCCC[N+]3(C)CCc4cc(OC)c(OC)cc4C3Cc3cc(OC)c(OC)c(OC)c3)cc1)CC2 (stereo not shown) [LL46, Bis-3-(N-methyl-1-(3,4,5-trimethoxybenzyl) 6,7-dimethoxy-1,2,3,4-tetrahydroisoquinolinium) propyl p-phenylene-3,3'-diacetate dichloride]",15 to 25,–
"C[N+](C)(C)CCOC(=O)CCC(=O)OCC[N+](C)(C)C [Succinyl-choline, succinylcholine chloride]",–,"duration of action [2]: 5 to 15 min; ED95 ([1]; rhesus monkey, in vivo): 1,0 - 2,0 MG/NG cation; Range of dupation of action (minutes from injection to full recovery) ([1]; rhesus monkey, in vivo): 4 to 6 min"
C[N+](C)(C)CCCCCCCCCC[N+](C)(C)C [decamethonium],–,duration of action [2]: 20 to 40 min
"COc1cc2c3cc1Oc1cc(ccc1O)C[C@@H]1c4c(cc(OC)c(O)c4Oc4ccc(cc4)C[C@@H]3N(C)CC2)CC[N+]1(C)C.Cl.O.O.O.O.O.[Cl-] [l-Tube-curarine, d-tubocurarine chloride]",30 to 50,"ED95 ([1]; dose range to produce 95 per cent block of the twitch response, muscle stimulated indirectly at 0,15 Hz via the sciatic nerve, halothane, nitrous oxide and oxygen anesthesia, 4 animals per compound): 0,2 - 0,4 MG/NG cation"
